Test results taken from patent US10172820B2, “Skin preparation composition for external use having excellent antiseptic ability” (AMOREPACIFIC CORPORATION, priority 2011, dated 2019).

Assay: Skin irritation test (24 hour patch test)
Set-up: species or system human
Conditions: in vivo; for Average skin irritation score: human, 24 h
Procedure: The patch is applied to the upper part of the back of each panel, using 20 μL of the test ingredient on an IQ chamber (Chemotechique, […]). The patch is removed after 24 hours of application and a first evaluation is conducted in 30 more minutes. After 24 hours, a second evaluation is carried out. To determine the severity of the skin irritation of each specimen, a weighted grade is applied according to the severity of the positive reaction on the skin to calculate the average skin irritation score as given by the following Equation and determine the severity of the skin irritation from the specimen. […] Mild irritation Score≥5: Severe irritation

| Structure (SMILES) | Average skin irritation score (1 %) | Skin irritation, result in words | Average skin irritation score (4 %) | Average skin irritation score (5 %) |
| --- | --- | --- | --- | --- |
| COc1ccc(C(=O)O)cc1 [p-anisic acid] | 0.94 | almost no irritation |  |  |
| C=CCCCCCCCCC(=O)OCC(O)CO (stereo not drawn) [Glyceryl undecylenate, glyceryl undecylenate] |  | almost no irritation | 0.00 |  |
| CCCCCCCC(=O)OCC(O)CO (stereo not drawn) [Glyceryl caprylate, glyceryl caprylate] |  | almost no irritation |  | 0.94 |
